# Residues, ends and D or L forms follow the SMILES beside them. *: point of attachment. Boc = CC(C)(C)OC(=O)*; Bn = c1ccc(C*)cc1
row,Structure (SMILES),melting point [°C]
1,O=C(Nc1cccc2c(=O)cc(C(=O)O)oc12)c1ccc2c(c1)CCC(CCCc1ccccc1)O2 (stereo unspecified),325 to 326
2,COC(=O)n1nc(Oc2c(F)cc(C(F)(F)F)cc2Cl)cc1C,123 to 125
3,O=C(NCc1ccccc1)NNC(=O)c1ccc(Cl)cc1,244 to 246
4,FC(F)(F)c1cccc(Nc2nc(NCc3ccco3)nc(-c3ccccc3)n2)c1,133 to 134
5,Cc1c(-c2ccc(O)cc2)sc(C=NO)c1-c1ccc(O)cc1,233 to 234
6,"CC1CCC2C(C)(C)C(=O)OC3OC4(C)CCC1C32OO4 (single isomer, unassigned; (+))",117 to 118
7,COc1cc(N2CCN(C[C@@H](O)CO)CC2)ccc1Nc1ncc2ccc(-c3cc(Cl)ccc3OC)n2n1,101 to 104
8,CC(C)(C)c1cc(C2=CCCCC2)c(O)c(C(C)(C)C)c1,102 to 104
9,COc1ccc(C(=O)Nc2cc(NC(=O)c3cccc(OCC(=O)O)c3)ccc2C)cc1OC,206 to 207
10,CCc1ccc(OCCc2c[nH]cn2)cc1,178
11,CC(=O)c1ccc(-c2ccc(Cl)c(Cl)c2)o1,114 to 117
12,CCCCOC(=O)N[C@@H](CC(N)=O)C(=O)N[C@@H](Cc1ccccc1)[C@H](O)C(=O)N1CCC[C@H]1C(=O)NC(C)(C)C,61 to 65
13,CCOC(=O)COc1ccc(C(=O)Nc2ccccc2Sc2cccc(O)c2-c2nnn[nH]2)cc1,155 to 157
14,CC(C)CNc1ccc(Cl)cc1C(O)c1ccccc1OCc1ccccc1 (stereo unspecified),79 to 80
15,O=C1NC(=O)c2cc(CCCCOc3ccccc3)ccc21,102 to 103
16,CC(C)(CCn1cncn1)NCC(O)c1ccc(O)c(CO)c1 (stereo unspecified),177 to 180
17,CCOC(=O)c1cc2c3n(ccc-2n1)CC(C(F)(F)F)=N3,230 to 231
18,Fc1ccc(SC(c2cc(F)ccc2F)c2cc(Cl)ncc2Cl)cc1 (stereo unspecified),95 to 97

row,Structure (SMILES),melting point [°C]
1,CCOC(=O)Oc1ccc(/C(=C(/CC)c2ccccc2)c2ccc(/C=C/C(=O)O)cc2)cc1,135 to 136
2,NC(=O)Cc1ccc(N/C=C2\C(=O)Nc3ccccc32)cc1,> 250
3,CCCCCCCCCCC#Cc1c2ccccc2c2ccc3c(C#CCCCCCCCCCC)c4ccccc4c4ccc1c2c34,129 to 130
4,CC(CC(C)C1CCC2C3C(=O)CC4CC(=O)CCC4(C)C3CCC12C)C(=O)O (stereo unspecified),119
5,COC(=O)C(=O)c1cn2c3c(cccc13)C(OC(C)=O)CC2 (stereo unspecified),165 to 168
6,CC(C)(C)c1cc(CC=Cc2ccccc2)cc(C(C)(C)C)c1O,93
7,Cc1n[nH]c2c(C(=O)NC(C)C)c(NC(=O)c3cc(C(F)(F)F)nn3-c3ncccc3Cl)c(Cl)cc12,235 to 236
8,CN1C(=O)[C@H](NC(=O)/C=C/c2cccc(Br)c2)N=C(c2ccccc2)c2ccccc21,221
9,CC(=O)CC(=O)C=Cc1ccc(O)cc1Cl,125 to 129
10,N#Cc1ccccc1CNC(=O)C1Cc2ccccc2N1S(=O)(=O)c1ccc(-c2cccc(C(F)(F)F)c2)cc1 (stereo unspecified),70
11,COC(c1nnc2n1-c1ccc(Cl)cc1C(c1ccccc1)=NC2)C1COC(C)(C)O1 (stereo unspecified),130 to 134
12,COC(=O)C(CC(C)C)NC(=O)C(C)NC(=O)C(Cc1ccc(OCc2ccccc2)cc1)NC(=O)C(COCc1ccccc1)NC(=O)OC(C)(C)C (stereo unspecified) (Boc-S(Bn)Y(Bn)AL-OMe; configuration not given here),67 to 71
13,CC(C)c1ccc2oc(C=Cc3ccc(C#N)cc3)cc(=O)c2c1,189 to 191
14,COc1cccc(C(=O)NCCc2ccc(-c3ccc(OC(C)(C)C(=O)O)cc3)cc2)c1,117
15,COC(=O)[C@H](O)[C@@H](O)C(C)C,32 to 34
16,CC(=O)OC1(c2ccc(Cl)cc2)CCN(CCCC(=O)c2ccc(F)cc2)CC1,106 to 110
17,CCCN(CCC)[C@@H]1Cc2c(Br)ccc3c2[C@@H](C1)CN3C(=O)c1ccccc1,93
18,C1=CC2=NCCC3CCOC23C=C1 (stereo unspecified),170 to 171

# From a melting point compilation (Tetko et al.; mined from patent text by program, amines drawn as free bases though some values may be those of a salt)
